Results on 27 molecules are retold here after PMC9355975, “Functional human cell-based vascularised cardiac tissue model for biomedical research and testing” (Scientific Reports, 2022).

Structures are written as SMILES.

Data set [1] has as its system cardiac tissue model (hiPSC-derived cardiomyocytes co-cultured with vascular-like network). Kind of data set: Multielectrode array (MEA) field potential recording: FPD, beating frequency, Na+ spike amplitude. The note with it: for signs of cardio activity or toxicity: negative controls, up to 30 µM; for signs of cardio activity or toxicity / effect on FPD (in words): MEA; for effect on FPD (in words): acute cumulative exposure. Type of data set: cell-based, human. The protocol:
Hydrophobic compounds were solubilized in DMSO as 10 mM stocks. The water-soluble compounds were solubilized in distilled water as 1 mM stocks.
Extracellular field potentials were recorded using a Multiwell-MEA-System (Multi Channel Systems) with a 20 kHz sampling frequency on days 8–9 after cardiomyocyte seeding. The temperature was set at 37 °C and the cells were supplied with 5% CO2 during the measurements. Two-minute recordings were obtained as spontaneous baseline beating, after which the cardiac tissue models were exposed to a ½ logarithmic cumulative concentration series spanning from […] of the test compounds. With 24-well plates four replicate wells and with 96-well plates eight replicate wells were used for each compound. The wash-in period between administration of the test compounds and 2-min recording was 8 min. The field potentials were recorded with Multiwell-Screen software (Multi Channel Systems) and analysed with Multiwell-Analyzer software (Multi Channel Systems). The data from the electrodes showing clear beating patterns, sodium spike voltage change over 70 µV, and a detectable T-wave were used for the analyses. Data obtained from the electrodes of one well were averaged. In the analyses, each well was treated as an individual and (the ratio of) test compound-induced changes were calculated against the recorded baseline from the same well. The data was normalized only against the baseline values, not against the vehicle control. All the field potential durations (FPD) were corrected against the changes in beating frequency using the Fridericia formula cFPD=FPD/RR3 , where RR is the RR interval.
For each compound, we analysed the effects on FPD, beat rate and amplitude. We selected one MEA parameter based on their mechanism of action. FPD, that corresponds to the QT interval[59], was selected for compounds that are known to affect the QT time e.g., by targeting hERG or Ca^2+ channels. Beat rate was selected for compounds that target adrenergic receptors.
For the electrophysiology measurements, the chosen sample size was either 4 when using 24-well MEA plates with 12 electrodes per well and 8 when using 96-well MEA plates with 3 electrodes per well. The reported n stands for the number of wells (cardiac tissue models) per repetition of the study. Each test was repeated 3 times using 4–8 parallels in each concentration. Excel (Microsoft) was used for to calculate the p-values using Student’s two-tailed t-test. EC50 and IC50 values were calculated using non-linear fit four-parameters logistic equation Prism version 5.0. (GraphPad). The baseline values were used as Emin.

Data set [2] has as its system QT interval. Particulars: cited from earlier work.
For data set [3] the following is noted: free plasma concentration from the literature; cited from earlier work.
Data set [4] has as its system QT interval. Particulars: cited from earlier work. This is another data set of the same source.
Data set [5] deals with hiPSC-derived cardiomyocytes. Details: method as in PMID 28456566. Particulars: cited from earlier work.
The test system of another data set is calcium channels. Also on record: method as in PMID 17078945. Particulars: cited from earlier work.
For another data set, the system named is sodium channels. Details: method as in PMID 10069689. Particulars: canine atrial myocytes; cited from earlier work.
On the set-up of data set [6]: method as in PMID 6599419. Particulars: humans; cited from earlier work.

`CC(=O)Oc1ccccc1C(=O)O` [Acetyl salicylic acid]: the “signs of cardio activity or toxicity” value in data set [1] is listed as “None”. For `COc1cc2nc(N(C)CCCNC(=O)C3CCCO3)nc(N)c2cc1OC` (stereo not drawn) [Alfuzosin], the “QT effect in patients” value in the data set on QT interval [2] (at high doses (100 nM)) was “mild QT increase”. Besides, in data set [1] (at 300 nM, statistically significant), the “increase in FPD” value came to 20%. The Therapeutic concentration in data set [3] is 56[21] nM. For the same molecule, in the data set with QT interval [4], the “concentration that significantly prolongs the QT interval in vitro” value was 300 nM. In the case of `COc1ccc(CCN2CCC(Nc3nc4ccccc4n3Cc3ccc(F)cc3)CC2)cc1` [Astemizole], the Therapeutic concentration in data set [3] was 8[21] nM. On to `COc1cc(N)c(Cl)cc1C(=O)NC1CCN(CCCOc2ccc(F)cc2)CC1OC` (stereo not drawn) [Cisapride], for which, in data set [3], the Therapeutic concentration is 2.5[29] nM. Regarding `C[C@H]1O[C@@H](O[C@H]2[C@@H](O)C[C@H](O[C@H]3[C@@H](O)C[C@H](O[C@H]4CC[C@@]5(C)[C@H](CC[C@@H]6[C@@H]5C[C@@H](O)[C@]5(C)[C@@H](C7=CC(=O)OC7)CC[C@]65O)C4)O[C@@H]3C)O[C@@H]2C)C[C@H](O)[C@@H]1O` [Digoxin], the Therapeutic concentration in data set [3] is 2.8[61] nM. For `CN(CCOc1ccc(NS(C)(=O)=O)cc1)CCc1ccc(NS(C)(=O)=O)cc1` [Dofetilide], the Therapeutic concentration in data set [3] was 2[60] nM. For the molecule `NCCc1ccc(O)c(O)c1` [Dopamine], the Therapeutic concentration in data set [3] is on record as 300 (20% increase) nM. As for `COc1cccc2c1C(=O)c1c(O)c3c(c(O)c1C2=O)C[C@@](O)(C(=O)CO)C[C@@H]3O[C@H]1C[C@H](N)[C@H](O)[C@H](C)O1` [Doxorubicin], the “changes to FPD, BPM or amplitude” value in data set [1] (short-term experiments, exposures up to 2 h) is listed as “could not detect any”. Further, in data set [5] (after two days of exposure), the “apoptosis of hiPSC-derived cardiomyocytes” value is listed as “increase”. The “effect on FPD or beat rate” value in data set [5] (short exposures) was “not to affect”. Regarding `CNC[C@H](O)c1ccc(O)c(O)c1` [Epinephrine], in data set [3], the Therapeutic concentration is 2.64[62] nM. `O=C(CCCN1CCC(O)(c2ccc(Cl)cc2)CC1)c1ccc(F)cc1` [Haloperidol]: in data set [3], the Therapeutic concentration is 45[60] nM.

Consider `CCCCCCc1ccc(O)cc1O` [Hexylresorcinol], for which, in data set [1], the “signs of cardio activity or toxicity” value was “None”. Consider `CC(C)Cc1ccc(C(C)C(=O)O)cc1` (stereo not drawn) [Ibuprofen], for which the “signs of cardio activity or toxicity” value in data set [1] was “None”. Take `CC(C)NCC(O)c1ccc(O)c(O)c1` (stereo not drawn) [Isoprenaline]: the Therapeutic concentration in data set [3] is 0.84[63] nM. With `COC(=O)C1=C(C)NC(C)=C(C(=O)OC(C)C)C1c1cccc2nonc12` (stereo not drawn) [Isradipine], the Therapeutic concentration in data set [3] is 80[61] nM. `C[C@@H]1CC(=O)NN=C1c1ccc(NN=C(C#N)C#N)cc1` [Levosimendan]: the Therapeutic concentration in data set [3] is 129[21] nM. As to `CCN(CC)CC(=O)Nc1c(C)cccc1C` [Lidocaine], in data set [3], the Therapeutic concentration was 2500[29] nM.

Take `COc1c(N2C[C@@H]3CCCN[C@@H]3C2)c(F)cc2c(=O)c(C(=O)O)cn(C3CC3)c12` [Moxifloxasin]: the Therapeutic concentration in data set [3] is 5600[60] nM.

As to `COC(=O)C1=C(C)NC(C)=C(C(=O)OC)C1c1ccccc1[N+](=O)[O-]` [Nifedipine], in data set [3], the Therapeutic concentration was 190[60] nM. For the molecule `N=C(N)c1ccc(OCCCCCOc2ccc(C(=N)N)cc2)cc1` [Pentamidine], the “effect on FPD (in words)” value in data set [1] is reported as “could not detect any significant FPD prolongation”. Besides, the Therapeutic concentration in data set [3] was 190[61] nM.

As to `O=c1[nH]c2ccccc2n1C1CCN(CCCC(c2ccc(F)cc2)c2ccc(F)cc2)CC1` [Pimozide], in data set [3], the Therapeutic concentration was 3.7[61] nM. In the case of `CC(C)NCC(O)COc1cccc2ccccc12` (stereo not drawn) [Propranolol], in data set [3], the Therapeutic concentration was 1095[64] nM.

As to `C=C[C@H]1C[N@@]2CC[C@H]1C[C@@H]2[C@@H](O)c1ccnc2ccc(OC)cc12` [Quinidine], in data set [3], the Therapeutic concentration was 3240[60] nM. As for `COc1ccccc1OCC(O)CN1CCN(CC(=O)Nc2c(C)cccc2C)CC1` (stereo not drawn) [Ranolazine], the Therapeutic concentration in data set [3] was 6010[21] nM. As to `CC(C)NCC(O)c1ccc(NS(C)(=O)=O)cc1` (stereo not drawn) [Sotalol], the Therapeutic concentration in data set [3] is 13,000[60] nM. Turning to `CC(C)(C)c1ccc(C(O)CCCN2CCC(C(O)(c3ccccc3)c3ccccc3)CC2)cc1` (stereo not drawn) [Terfenadine], the “effect on FPD (in words)” value in data set [1] is “FPD shortening”. The “increase in FPD before the shortening of FPD initiated” value in data set [1] (non-significant) worked out at 10%. Besides, the IC50 in the data set with calcium channels is 185 nM; with sodium channels it was 930 nM. In addition, in data set [3], the Therapeutic concentration was 300[21] nM. Turning to `CC(CC(c1ccccc1)c1ccccc1)NC(C)(C)C` (stereo not drawn) [Terodiline], the EC50 in data set [1] (Homo sapiens, Cardiomyocyte, as rounded in the discussion, read-out: amplitude EC50 concentration) amounted to 2600 nM. Further, the “effect on FPD (in words)” value in data set [1] is recorded as “did not detect the expected FPD prolongation”. Also, in data set [6], the toxic plasma concentration is reported as 2.1 µM. The Therapeutic concentration in data set [3] is 1800[60] nM. For `Cc1ccc(O)c([C@H](CCN(C(C)C)C(C)C)c2ccccc2)c1` [Tolterodine], the “QT interval in clinical use” value in the data set with QT interval [2] was “does not prolong the QT interval”. Also, the Therapeutic concentration in data set [3] is recorded as 5 nM. In addition, the “in vivo concentration corresponding to the QT-prolonging concentration in vitro” value in the data set on QT interval [4] (very high concentration in vitro) was 340 nM.
